Data on four compounds can be found in patent US20250034216A1, “STEREOSELECTIVE COVALENT LIGANDS FOR ONCOGENIC AND IMMUNOLOGICAL PROTEINS” (The Scripps Research Institute, priority 2021, published 2025).

The target of the test is T1, VPS18_C522 (Homo sapiens, UniProt Q9P253).
T1 construct: endogenous in cells; host or cells: 22Rv1
T1 sequence (Q9P253 1-973): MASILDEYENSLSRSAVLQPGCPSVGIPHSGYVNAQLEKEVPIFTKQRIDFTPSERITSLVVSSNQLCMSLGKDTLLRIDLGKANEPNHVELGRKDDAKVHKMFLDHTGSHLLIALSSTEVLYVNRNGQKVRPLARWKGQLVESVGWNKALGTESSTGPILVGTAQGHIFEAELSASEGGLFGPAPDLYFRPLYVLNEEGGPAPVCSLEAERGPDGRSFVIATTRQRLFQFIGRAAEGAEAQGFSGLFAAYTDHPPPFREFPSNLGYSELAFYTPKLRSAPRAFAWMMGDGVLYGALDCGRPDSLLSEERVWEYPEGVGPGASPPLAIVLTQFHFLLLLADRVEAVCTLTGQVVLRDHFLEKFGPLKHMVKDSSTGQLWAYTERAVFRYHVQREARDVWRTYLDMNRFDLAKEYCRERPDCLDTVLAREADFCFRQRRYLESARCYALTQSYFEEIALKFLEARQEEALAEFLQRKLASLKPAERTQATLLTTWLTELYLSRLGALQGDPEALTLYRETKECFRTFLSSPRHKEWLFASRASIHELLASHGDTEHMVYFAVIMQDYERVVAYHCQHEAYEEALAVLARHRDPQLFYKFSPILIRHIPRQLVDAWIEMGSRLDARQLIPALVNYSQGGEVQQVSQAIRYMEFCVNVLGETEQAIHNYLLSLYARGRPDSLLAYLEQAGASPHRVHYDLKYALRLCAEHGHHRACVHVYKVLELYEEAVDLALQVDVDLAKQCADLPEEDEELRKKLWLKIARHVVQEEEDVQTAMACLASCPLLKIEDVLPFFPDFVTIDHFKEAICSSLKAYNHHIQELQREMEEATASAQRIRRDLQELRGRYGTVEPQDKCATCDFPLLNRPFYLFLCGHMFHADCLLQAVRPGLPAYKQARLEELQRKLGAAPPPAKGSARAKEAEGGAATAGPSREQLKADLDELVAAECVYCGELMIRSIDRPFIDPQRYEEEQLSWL
Briefly: IA-DTB cysteine engagement. The class given is binding. Particulars: 22Rv1 cells, 20 μM probe, 1 h, relative to DMSO. The method, boiled down: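 Read-out is TMT-based cysteine engagement, expressed as each reporter ion intensity divided by the average of the DMSO channels. Before that, probe-treated cell lysates were capped with IA-DTB, digested, enriched on streptavidin and TMT-tagged. PSMs with DMSO summed intensity <10,000 or DMSO CV >0.5 were excluded.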

Each structure is given as a SMILES string.

For the compound `C=CC(=O)N1C[C@H](c2ccc(Br)cc2)[C@H]1C(=O)Nc1cccc2cccnc12` [MY-3A, (2S,3S)-1-acryloyl-3-(4-bromophenyl)-N-(quinolin-8-yl)azetidine-2-carboxamide], the “% engagement VPS18_C522” value worked out at 88%.

For the compound `C=CC(=O)N1C[C@@H](c2ccc(Br)cc2)[C@H]1C(=O)Nc1cccc2cccnc12` [MY-1A, (2S,3R)-1-acryloyl-3-(4-bromophenyl)-N-(quinolin-8-yl)azetidine-2-carboxamide], the “% engagement VPS18_C522” value is −22%.

On to `C=CC(=O)N1C[C@H](c2ccc(Br)cc2)[C@@H]1C(=O)Nc1cccc2cccnc12` [MY-1B, (2R,3S)-1-acryloyl-3-(4-bromophenyl)-N-(quinolin-8-yl)azetidine-2-carboxamide], for which the “% engagement VPS18_C522” value is listed as 45%.

As to `C=CC(=O)N1C[C@H](c2ccc(Br)cc2)[C@H]1C(=O)Nc1cccc2cccnc12` [MY-3B, (2S,3S)-1-acryloyl-3-(4-bromophenyl)-N-(quinolin-8-yl)azetidine-2-carboxamide], the “% engagement VPS18_C522” value came out at 21%.
